# Test results: the supplement of paper PMC8092582
# Where a name gives a salt, the structure may show the parent alone. ± gives the standard deviation of the averaged measurements.
# System: HeLa
# Assay: cell viability (CellTiter-Glo) relative to median of lowest-dilution wells of all drugs (fraction); higher = more viable cells
# Method: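 HeLa control and CRISPR DDX11 knockout cells were seeded in 384-well plates and incubated for 72 h with each of 64 […] drugs at six concentrations. Viability was read with CellTiter-Glo and normalised to the median of the lowest (6th) dilution wells of all drugs. Two biological replicates (BR1, BR2) are averaged; the concentration unit is not stated.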
# [1] = drug concentration (unit not stated): 0.01, genotype: DDX11 knockout
# [2] = drug concentration (unit not stated): 0.01, genotype: control (DDX11 wild type)
# [3] = drug concentration (unit not stated): 0.04, genotype: DDX11 knockout
# [4] = drug concentration (unit not stated): 0.04, genotype: control (DDX11 wild type)
# [5] = drug concentration (unit not stated): 0.12, genotype: DDX11 knockout
# [6] = drug concentration (unit not stated): 0.12, genotype: control (DDX11 wild type)
# [7] = drug concentration (unit not stated): 0.37, genotype: DDX11 knockout
# [8] = drug concentration (unit not stated): 0.37, genotype: control (DDX11 wild type)
# [9] = drug concentration (unit not stated): 1.11, genotype: DDX11 knockout
# [10] = drug concentration (unit not stated): 1.11, genotype: control (DDX11 wild type)
# [11] = drug concentration (unit not stated): 3.33, genotype: DDX11 knockout
# [12] = drug concentration (unit not stated): 3.33, genotype: control (DDX11 wild type)
# [13] = drug concentration (unit not stated): 10, genotype: DDX11 knockout
# [14] = drug concentration (unit not stated): 10, genotype: control (DDX11 wild type)
SMILES,cell viability [1],cell viability [2],cell viability [3],cell viability [4],cell viability [5],cell viability [6],cell viability [7],cell viability [8],cell viability [9],cell viability [10],cell viability [11],cell viability [12],cell viability [13],cell viability [14],"cell viability (drug concentration (unit not stated): 30, genotype: DDX11 knockout)","cell viability (drug concentration (unit not stated): 30, genotype: control (DDX11 wild type))"
Nc1nc(Cl)nc2c1ncn2[C@H]1C[C@H](O)[C@@H](CO)O1 [Cladribine],0.96 ± 0.03,0.977 ± 0.015,1.04 ± 0.035,1.04 ± 0.052,1.09 ± 0.077,1.2 ± 0.25,0.935 ± 0.024,1.06 ± 0.25,0.487 ± 0.34,0.468 ± 0.15,0.135 ± 0.12,0.103 ± 0.056,–,–,–,–
Nc1nc(Cl)nc2c1ncn2[C@@H]1O[C@H](CO)[C@@H](O)[C@@H]1F [Clofarabine],1.03 ± 0.061,1.04 ± 0.013,0.967 ± 0.12,0.999 ± 0.11,0.699 ± 0.46,0.887 ± 0.6,0.177 ± 0.19,0.181 ± 0.2,0.0355 ± 0.013,0.0535 ± 0.038,–,–,–,–,–,–
Nc1ccn([C@@H]2O[C@H](CO)[C@@H](O)[C@@H]2O)c(=O)n1 [Cytarabine],1.05 ± 0.017,1.02 ± 0.028,1 ± 0.016,1.02 ± 0.058,0.987 ± 0.12,1.02 ± 0.096,0.728 ± 0.11,0.994 ± 0.21,0.682 ± 0.14,0.907 ± 0.41,–,–,–,–,–,–
Nc1ncn([C@H]2C[C@H](O)[C@@H](CO)O2)c(=O)n1 [Decitabine],–,–,1.062 ± 0.0019,1.0513 ± 0.0006,1.01 ± 0.16,1.06 ± 0.019,1.03 ± 0.12,1.03 ± 0.043,0.973 ± 0.012,1.05 ± 0.054,0.975 ± 0.099,1.1 ± 0.097,0.867 ± 0.018,1.11 ± 0.086,–,–
CCc1cnn2c(NCc3ccc[n+]([O-])c3)cc(N3CCCC[C@H]3CCO)nc12 [Dinaciclib],0.119 ± 0.011,0.0976 ± 0.048,0.189 ± 0.0066,0.232 ± 0.063,0.182 ± 0.011,0.239 ± 0.068,0.171 ± 0.019,0.264 ± 0.096,0.169 ± 0.0065,0.254 ± 0.097,–,–,–,–,–,–
COc1cccc2c1C(=O)c1c(O)c3c(c(O)c1C2=O)C[C@@](O)(C(=O)CO)C[C@@H]3O[C@H]1C[C@H](N)[C@H](O)[C@H](C)O1 [Doxorubicin (Adriamycin)],1.02 ± 0.03,0.9786 ± 0.0019,0.923 ± 0.087,0.986 ± 0.0043,0.75 ± 0.18,0.96 ± 0.41,0.328 ± 0.4,0.679 ± 0.6,0.024 ± 0.0057,0.153 ± 0.2,0.0172 ± 0.0017,0.0179 ± 0.006,–,–,–,–
COc1cccc2c1C(=O)c1c(O)c3c(c(O)c1C2=O)C[C@@](O)(C(=O)CO)C[C@@H]3O[C@H]1C[C@H](N)[C@@H](O)[C@H](C)O1 [Epirubicin Hydrochloride],1.02 ± 0.021,1.04 ± 0.05,0.89 ± 0.23,0.967 ± 0.084,0.596 ± 0.37,0.902 ± 0.42,0.304 ± 0.39,0.55 ± 0.72,0.0326 ± 0.0056,0.164 ± 0.21,0.0161 ± 0.003,0.0225 ± 0.011,–,–,–,–
COc1cc([C@@H]2c3cc4c(cc3[C@@H](O[C@@H]3O[C@@H]5CO[C@@H](C)O[C@H]5[C@H](O)[C@H]3O)[C@H]3COC(=O)[C@H]23)OCO4)cc(OC)c1O [Etoposide (VP-16)],–,–,0.993 ± 0.062,0.992 ± 0.036,0.913 ± 0.1,0.985 ± 0.015,0.737 ± 0.18,0.978 ± 0.18,0.477 ± 0.24,0.842 ± 0.39,0.165 ± 0.14,0.35 ± 0.33,0.0411 ± 0.033,0.0423 ± 0.033,–,–
O=c1[nH]c(=O)n([C@H]2C[C@H](O)[C@@H](CO)O2)cc1F [Floxuridine],1.04 ± 0.047,1.2 ± 0.21,1 ± 0.05,1.1 ± 0.054,0.961 ± 0.15,0.998 ± 0.019,1.01 ± 0.13,0.952 ± 0.19,0.858 ± 0.19,0.874 ± 0.31,0.76 ± 0.43,0.786 ± 0.51,–,–,–,–
Nc1nc(F)nc2c1ncn2[C@@H]1O[C@H](COP(=O)(O)O)[C@@H](O)[C@@H]1O [Fludarabine Phosphate (Fludara)],–,–,1.0709 ± 0.00057,1.04 ± 0.014,1.03 ± 0.061,1.04 ± 0.012,1.02 ± 0.12,1.0367 ± 0.00023,1.08 ± 0.024,1.07 ± 0.029,1.06 ± 0.046,1.15 ± 0.028,1.07 ± 0.027,1.16 ± 0.12,–,–
O=c1[nH]c(=O)n(C2CCCO2)cc1F (stereo not drawn) [Ftorafur (Tegafur)],0.991 ± 0.11,0.978 ± 0.05,0.985 ± 0.063,0.953 ± 0.027,1 ± 0.057,1.01 ± 0.014,1.02 ± 0.016,1.01 ± 0.026,1 ± 0.016,1.01 ± 0.028,1.013 ± 0.0085,1.03 ± 0.014,–,–,–,–
Nc1ccn([C@@H]2O[C@H](CO)[C@@H](O)C2(F)F)c(=O)n1 [Gemcitabine HCl (Gemzar)],0.0596 ± 0.017,0.0573 ± 0.021,0.0446 ± 0.0085,0.0383 ± 0.016,0.0501 ± 0.015,0.0767 ± 0.053,0.0439 ± 0.017,0.065 ± 0.04,0.0472 ± 0.028,0.0514 ± 0.028,–,–,–,–,–,–
CCS(=O)(=O)Nc1ccc2c(c1)/C(=C(/Nc1ccc(CN3CCCCC3)cc1)c1ccccc1)C(=O)N2 [Hesperadin],1.038 ± 0.0037,1.02 ± 0.011,0.981 ± 0.038,0.9913 ± 0.0085,0.85 ± 0.077,0.995 ± 0.26,0.79 ± 0.011,0.966 ± 0.21,0.696 ± 0.026,0.838 ± 0.12,–,–,–,–,–,–
NC(=O)c1ccc(I)c([N+](=O)[O-])c1 [Iniparib (BSI-201)],–,–,–,–,1.01 ± 0.022,0.996 ± 0.031,1.06 ± 0.0055,0.981 ± 0.077,1.03 ± 0.045,0.951 ± 0.08,0.996 ± 0.028,0.969 ± 0.12,1.02 ± 0.062,0.93 ± 0.17,0.839 ± 0.094,0.92546 ± 0.00092
O=C1c2c(O)ccc(O)c2C(=O)c2c(NCCNCCO)ccc(NCCNCCO)c21 [Mitoxantrone Hydrochloride],0.834 ± 0.17,0.952 ± 0.011,0.556 ± 0.33,0.88 ± 0.18,0.292 ± 0.31,0.858 ± 0.57,0.124 ± 0.13,0.583 ± 0.73,0.0246 ± 0.0088,0.312 ± 0.42,–,–,–,–,–,–
